Assay results published in US20230348978A1, “TREATMENT OF ALZHEIMER'S DISEASE” (SELONTERRA, INC., priority 2020, published 2023).

Test system: E4E4 neurons
Assay: qPCR gene expression in E4E4 neurons treated with GPR4 agonist
Assay type: cell-based, human
Conditions: six hours, vs E4E4 vehicle-treated neurons
From the text: Example 1: Cultivation of human isogenic neurons carrying either the homozygous APOE4 genotype (E4E4) or the homozygous APOE3 genotype (E3E3). Commercially available human isogenic neurons were acquired from Fujifilm Cellular Dynamics Inc. The homozygous APOE4 genotype (E4E4) neurons were designated DDP-NRC-1× 01434.779 and herein they are referred to as E4E4 neurons. The homozygous APOE3 genotype (E3E3) neurons were designated R1013 and herein they are referred to as E3E3 neurons. The neurons were plated and cultivated in 96-well plates. Prior to plating of neurons, the manufacturer supplied complete maintenance medium was prepared and stored at 4 degrees Celsius. The 96-well plates were double coated with poly-L-ornithin (PLO Sigma; P4957) and laminin (Sigma; L2020) by first coating the wells with poly-L-ornithin overnight at 4 degrees Celsius. Wells were rinsed with phosphate-buffered saline and then laminin diluted in phosphate-buffered saline at a concentration of 10 micrograms/milliliter was added for three hours. Complete maintenance medium was equilibrated to room temperature. Neurons were thawed for three minutes in a 37 degrees Celsius water bath. The content of the vial was transferred to a 50 ml conical tube by adding one milliliter of room-temperature equilibrated complete maintenance medium and suspending the neurons. The neuron suspension was transferred to the 50 ml conical tube. This neuron suspension was further diluted by addition of eight milliliter of complete maintenance medium. A viable neuron count was performed and the neurons were plated into individual wells of a 96-well plate at a neuronal seed density of 125,000 neurons per cm^2. The E3E3 and the E4E4 containing 96-well plates were transferred into a cell incubator and incubated at 37 degrees Celsius and 5% CO2. E3E3 and E4E4 neurons plated in this way were allowed to attach to the wells of the 96-well plate for 24 hours at which time a 100% medium change to fresh complete maintenance medium was performed. The E3E3 and E4E4 neurons were then continued to be cultivated at 37 degrees Celsius and 5% CO2. On Day 5 after plating a 50% medium change was performed by removal of 50% of the cell supernatant and addition of the same volume of fresh complete maintenance medium and then the 96-well plates were continued to be cultivated at 37 degrees Celsius and 5% CO2. On Day 9 after plating, a 50% medium change was performed by removal of 50% of the cell supernatant and addition of the same volume of fresh complete maintenance medium. This medium change was performed before neurons were treated with compounds on Day 9 after plating.
Example 2: Treatment of E4E4 neurons with the exemplary GPR4 agonist SLC2004 and vehicle and E3E3 neurons with vehicle. E4E4 and E3E3 neurons were plated and cultivated in individual wells of a 96-well plate as described in Example 1. The compound spingosylphosphorylcholine (SLC2004) (Sigma; S4257) is a lyophilized powder with a white to yellow appearance and a molecular weight of 464.62 Dalton. A fresh stock solution of SLC2004 was prepared in methanol as vehicle at a stock concentration of 300 millimolar. This stock solution was further diluted to yield two 21-fold concentrated solutions of the intended in-well concentrations. For one of the 21-fold concentrated SLC2004 solution, a final SLC2004 in-well concentration of 3 micromolar was achieved by adding 10 microliters of this 21-fold concentrated SLC2004 solution to 200 microliters of complete maintenance medium in each well of the 96-well plate. For the second 21-fold concentrated SLC2004 solution, a final SLC2004 in-well concentration of 10 micromolar was achieved by adding 10 microliters of this 21-fold concentrated SLC2004 solution to 200 microliters of complete maintenance medium in each well of the 96-well plate. All wells with SLC2004-treated neurons contained the same amount of 0.01% methanol in complete maintenance medium. […]

CCCCCCCCCCCCC/C=C/[C@@H](O)[C@@H](N)COP(=O)([O-])OCC[N+](C)(C)C [SLC2004, sphingosylphosphorylcholine]
downregulated: expression of ITGB3 (3 micromolar)
upregulated: expression of CCND3 (3 micromolar) | expression of VCL (3 micromolar) | expression of BDNF (10 micromolar) | expression of CTGF (10 micromolar) | expression of YAP1 (10 micromolar)
